Results as given in patent publication US8921362B2, “6,7-dialkoxy quinazoline derivatives and methods of treating drug resistant and other tumors” (Natco Pharma Limited, priority 2008, dated 2014).
Where a name gives a salt, the structure may show the parent alone. Read-outs that look alike come from different tables or passages of the source.

Legend:
[1] = Acute oral gavage toxicity (MTD); conditions: G4, 1000 mg/kg body wt., rats
[2] = 30 day repeated dose study; conditions: both sexes, dog, in vivo, po, beagle dogs, orally by capsule, read-out: no observed adverse effect level (NOAEL)
Protocol: The methods followed were as per CPMP/SWP/1042/99 (July 2000) and ICH S3A (March (1995)) guidelines. Prior to the 30 day repeated dose study, a dose range finding study was conducted, which included single dose MTD study followed by a 10 day repeated dose study. For the single dose MTD study, two dogs (1 male and 1 female) of beagle breed, obtained from Marshall's Farm, China, were used. The route of dosing was oral, by gelatin capsule. Based on the results of the dose range finding study, doses for the 30 days study were selected.
The 30 day repeated dose study employed 12 male and 12 female dogs (Marshall's Farm, China). The dogs were acclimatized for a minimum period of 2 weeks and randomly divided into four main groups (G1-G4), each group comprising of 3 dogs per sex. […]
(§1) The study also tracked body weight (weekly), food consumption (daily), opthalmological status (start and end), hematological and biochemical analyses (start and end), toxicokinetics analysis of plasma (start and end). At the end of the study, all dogs were euthanized by a humane and accepted procedure, subjected to a gross post-mortem examination, organ weights (absolute and relative) were determined, and histopathological examination was carried out.

[3] = Functional observational battery (FOB); assay type: in vivo, Wistar rats; conditions: 75, 125 and 250 mg/kg b.wt single oral dose, 60-120 min post treatment
Protocol: The study was conducted in accordance with “[…] Safety Pharmacology Studies for Human Pharmaceuticals, ICH” July 2001, and as per this study protocol. […] Rats that had been fasted for 16 to 18 hours (access to water was not interrupted) were dosed with the compound or water. The rats were administered the compound in an aqueous formulation at three levels, 75, 125 and 250 mg/kg b.wt, as a single oral dose by gavage. The control group received water. The rats were subjected to the FOB 60-120 min. after drug administration.
Animals were subjected to the FOB one at a time except for the multiple activity cage where four animals were placed in four different cages simultaneously. Once complete, the animals were returned to their home cage and the cage placed back on the stand.

[4] = Acute oral gavage toxicity (MTD)
Protocol: (§3) 20 male and 20 female Swiss albino mice were randomly divided into four groups (G1-G4). Each group was 5 male and 5 female Swiss albino mice. […] G1 was treated with placebo and served as a control. […] The mid dose group animals (G3-treated with 500 mg/kg b.wt) were administered the dose formulation twice with a gap of approximately 1 hour. Animals from high dose group (G4-treated with 1000 mg/kg b.wt) received the dose formulation four times with a gap of approximately one hour.

[5] = Respiratory function, whole body plethysmograph; assay type: in vivo, Wistar rats; conditions: 75, 125 and 250 mg/kg body weight, oral, 3 hours
Protocol: This study evaluated the effect of NRC-2694A monohydrochloride on respiratory function in conscious Wistar rats following administration of a single dose using a whole body plethysmograph. The study was conducted in accordance with “S7A Safety Pharmacology Studies for Human Pharmaceuticals, ICH” issued July 2001. The study used a parallel design with one vehicle and three test item treated groups. […] Male Wistar rats were placed in plethysmography chambers and baseline respiratory parameters were recorded for 30 minutes. Following drug administration respiratory parameters were recorded continuously for 3 hours.

in vivo [6] = conditions: both, Swiss albino, mouse, po
Protocol: as §3

[7] = Toxicokinetics in 30 day repeated dose study; assay type: in vivo, beagle dogs; conditions: for Tmax: beagle, dog, plasma, po, read-out: median Tmax
Protocol: The 30 day repeated dose study employed 12 male and 12 female dogs (Marshall's Farm, China). The dogs were acclimatized for a minimum period of 2 weeks and randomly divided into four main groups (G1-G4), each group comprising of 3 dogs per sex. The animals were dosed orally with capsules of NRC-2694A for a period of 30 consecutive days at dose levels of 10 mg/kg b.wt/day (G2-low dose), 20 mg/kg b.wt/day (G3-mid dose) and 40 mg/kg b. wt/day (G4-high dose). […] The control group (G1-0 mg/kg b. wt/day) animals were dosed by oral capsule with placebo.
as §1
The toxicokinetic parameters viz.

[8] = tested on: Salmonella typhimurium (TA 98, TA 100, TA 102, TA 1535 and TA 1537); test: Ames bacterial reverse mutation assay; assay type: cell-based; conditions: 0.0125-1.2500 mg/plate, with and without S9
Protocol: The present study was conducted by the direct plate incorporation method with five tester strains of Salmonella typhimurium (TA 98, TA 100, TA 102, TA 1535 and TA 1537). […] Simultaneously, negative control cultures received DMSO and the respective positive controls received the mutagens 2-Amino anthracene, 2-Nitrofluorene, Sodium azide, 9-Aminoacridine and Mitomycin C (Sigma, St. Louis). In order to study the role of metabolic activation, cultures were incubated both with and without S9 mixture. The induction of Histidine positive colonies was computed and results were statistically treated for comparison.

[9] = Cardiovascular parameters in telemetered dogs; assay type: in vivo; conditions: male Beagle dogs
Protocol: The study was conducted in accordance with ICH “S7A Safety Pharmacology Studies for Human Pharmaceuticals, Note for Guidance on Safety Pharmacology Studies for Human Pharmaceuticals, July 2001”. The doses tested were 0, 15, 30 and 60 mg/kg b.wt. given orally by gelatin capsule. Four male Beagle dogs, each implanted with a TL1IM2-D70-PCT transmitter (Data Sciences International, USA), were used for the study. During the study, the dogs were administered 4 oral treatments representing placebo and all test substance treatment groups with a three day (˜72 hour) wash-out period between each administration, using a Latin square cross-over design.
On dosing days, the telemetered dogs were observed once before commencement of data collection, continuously through 2 hours post-dose remotely and ˜8 hours post-dose for changes in behaviour. Cardiovascular parameters (systolic, diastolic and mean blood pressure, pulse pressure and heart rate) were recorded continuously for ˜60 minutes before dosing and up to 24 hours after dosing. Systolic, diastolic and mean blood pressures, pulse pressure and heart rate were obtained from the femoral artery waveform. Electrocardiograms were recorded continuously for ˜60 minutes before dosing and up to 24 hours after dosing. […] Heart rate and QT intervals were determined from the ECG's.

[10] = po, Swiss Albino mice, suspended in 2% gum acacia
[11] = Acute toxicity (LD0, LD50); assay type: in vivo; conditions: po, mice, single dose
Protocol: […]. The doses 500, 750, 1000 and 2000 mg/Kg were administered orally. Each group included 5 mice. […] The survived animals were autopsied for asserting the absorption of compound through g.i.t. The LD50 was determined according to the method described in Litchfield and Wilcoxon (J. Pharmacol. Exp. Ther. 1949, 96:99-113).

[12] = tested on: A549 luciferase expressing cells; test: Nude mice implanted with A549 luciferase expressing cells; assay type: in vivo; conditions: oral and ip routes, FIGS. 6 & 7
[13] = tested on: A549 luciferase expressing cells; test: Lung tissue harvested from nude mice after treatment; assay type: in vivo; conditions: oral/ip routes, various concentrations, FIG. 4
VEGFR = test: Down regulation of receptors, western blot in A549 cells; assay type: cell-based, human; conditions: FIG. 8
Protocol: (§2) Levels of Erb-1, Erb-2, Erb-3, Erb-4 and VEGFR were determined by western blot analysis.

H1299 and A549 cells = test: Matrigel invasion assay; assay type: cell-based, human; conditions: 48 hr treatment, FIG. 2
Protocol: The in vitro invasiveness of H1299 and A549 cells in the presence of various concentrations of NRC compounds (as determined by MTT assay) was assessed using a modified Boyden chamber assay. Cells were treated with these compounds for 48 hr. 1×10^6 cells were suspended in 600 μl of serum-free medium supplemented with 0.2% BSA and placed in the upper compartment of the transwell chambers (Corning Costar Fisher Scientific cat #07-200-158, Pittsburgh Pa.) coated with matrigel (0.7 mg/ml). The lower compartment of the chamber was filled with 200 μl of serum medium and the cells were allowed to migrate for 24 hr. After incubation, the cells were fixed and stained with Hema-3 and quantified as previously described (Mohanam et al. 1993). The migrated cells were quantified as percent invasion.

in vivo [14] = conditions: both, Swiss albino, mouse, po; remark: listed apart in the source
ERBB4 = ERBB4 (Homo sapiens, UniProt Q15303); test: Down regulation of receptors, western blot in A549 cells; assay type: cell-based; set-up: endogenous in cells; host or cells: A549; conditions: FIG. 8
ERBB4, sequence (Q15303 26-1308): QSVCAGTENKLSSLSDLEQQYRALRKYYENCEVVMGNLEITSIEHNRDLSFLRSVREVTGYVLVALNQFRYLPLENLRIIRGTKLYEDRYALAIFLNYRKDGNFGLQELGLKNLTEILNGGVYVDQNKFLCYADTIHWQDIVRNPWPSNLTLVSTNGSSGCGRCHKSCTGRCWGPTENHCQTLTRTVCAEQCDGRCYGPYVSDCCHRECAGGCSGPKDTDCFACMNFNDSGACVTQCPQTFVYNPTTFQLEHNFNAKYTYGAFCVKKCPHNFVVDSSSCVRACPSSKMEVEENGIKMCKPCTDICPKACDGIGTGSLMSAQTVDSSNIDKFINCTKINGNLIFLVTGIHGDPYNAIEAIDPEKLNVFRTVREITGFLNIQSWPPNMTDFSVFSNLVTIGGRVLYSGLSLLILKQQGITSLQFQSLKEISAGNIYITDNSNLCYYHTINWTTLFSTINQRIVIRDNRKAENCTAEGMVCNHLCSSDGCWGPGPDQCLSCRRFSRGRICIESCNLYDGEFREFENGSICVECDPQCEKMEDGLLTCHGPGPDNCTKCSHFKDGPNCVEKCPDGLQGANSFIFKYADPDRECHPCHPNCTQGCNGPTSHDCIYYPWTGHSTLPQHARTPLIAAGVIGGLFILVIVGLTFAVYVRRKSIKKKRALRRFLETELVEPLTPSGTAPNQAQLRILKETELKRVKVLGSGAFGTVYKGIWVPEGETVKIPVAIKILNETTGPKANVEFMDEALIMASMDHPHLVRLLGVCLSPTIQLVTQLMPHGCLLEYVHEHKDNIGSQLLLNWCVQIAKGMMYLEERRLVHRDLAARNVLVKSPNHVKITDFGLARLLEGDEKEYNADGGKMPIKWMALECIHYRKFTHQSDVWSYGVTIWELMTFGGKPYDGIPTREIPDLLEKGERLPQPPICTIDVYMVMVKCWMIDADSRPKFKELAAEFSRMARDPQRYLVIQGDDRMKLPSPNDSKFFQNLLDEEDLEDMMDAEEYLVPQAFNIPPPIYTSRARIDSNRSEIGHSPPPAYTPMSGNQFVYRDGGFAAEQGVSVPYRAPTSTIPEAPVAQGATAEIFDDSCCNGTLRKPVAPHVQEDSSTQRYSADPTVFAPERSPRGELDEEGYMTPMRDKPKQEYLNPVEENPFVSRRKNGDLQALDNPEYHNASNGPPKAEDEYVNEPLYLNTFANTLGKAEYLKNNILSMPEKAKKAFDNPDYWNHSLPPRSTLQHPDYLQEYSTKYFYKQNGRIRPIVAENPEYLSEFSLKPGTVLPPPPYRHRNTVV
Protocol: as §2

ERBB2 = ERBB2 (Homo sapiens, UniProt P04626); test: as above; assay type: cell-based; set-up: endogenous in cells; host or cells: A549; conditions: FIG. 8
ERBB2, sequence (P04626 23-1255): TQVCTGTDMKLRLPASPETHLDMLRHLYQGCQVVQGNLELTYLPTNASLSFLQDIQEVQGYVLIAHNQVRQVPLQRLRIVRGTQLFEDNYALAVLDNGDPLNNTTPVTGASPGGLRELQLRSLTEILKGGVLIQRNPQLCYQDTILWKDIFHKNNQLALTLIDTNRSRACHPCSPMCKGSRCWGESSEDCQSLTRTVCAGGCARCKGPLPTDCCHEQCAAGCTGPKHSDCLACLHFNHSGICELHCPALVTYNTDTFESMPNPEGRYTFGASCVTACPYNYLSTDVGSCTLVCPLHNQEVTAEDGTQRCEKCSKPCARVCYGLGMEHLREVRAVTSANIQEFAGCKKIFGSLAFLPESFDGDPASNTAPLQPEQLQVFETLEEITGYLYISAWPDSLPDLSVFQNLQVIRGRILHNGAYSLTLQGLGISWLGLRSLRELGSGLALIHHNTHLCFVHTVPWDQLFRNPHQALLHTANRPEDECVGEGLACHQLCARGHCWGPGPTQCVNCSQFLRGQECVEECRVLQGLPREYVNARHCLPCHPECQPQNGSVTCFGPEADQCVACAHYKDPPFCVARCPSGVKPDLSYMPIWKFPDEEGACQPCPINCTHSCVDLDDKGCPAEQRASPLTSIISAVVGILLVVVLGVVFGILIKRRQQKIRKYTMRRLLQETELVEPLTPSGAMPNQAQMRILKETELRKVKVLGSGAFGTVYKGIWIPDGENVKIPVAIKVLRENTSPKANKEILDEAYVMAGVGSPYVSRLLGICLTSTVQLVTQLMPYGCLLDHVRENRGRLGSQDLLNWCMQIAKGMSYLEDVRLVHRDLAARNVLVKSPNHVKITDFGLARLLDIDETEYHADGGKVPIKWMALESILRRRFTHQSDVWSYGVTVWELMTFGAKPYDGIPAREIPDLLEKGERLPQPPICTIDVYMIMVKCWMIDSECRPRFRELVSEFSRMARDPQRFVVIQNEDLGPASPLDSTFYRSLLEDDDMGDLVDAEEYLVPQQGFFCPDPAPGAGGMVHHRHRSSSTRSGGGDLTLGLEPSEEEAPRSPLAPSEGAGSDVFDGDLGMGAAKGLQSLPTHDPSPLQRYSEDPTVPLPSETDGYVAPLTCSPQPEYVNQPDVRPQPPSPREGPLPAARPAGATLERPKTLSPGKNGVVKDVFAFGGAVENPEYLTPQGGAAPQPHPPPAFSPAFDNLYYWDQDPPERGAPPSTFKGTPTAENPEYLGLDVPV
Protocol: as §2

A549 human lung tumors = test: Subcutaneous lung tumors in nude mice; assay type: in vivo; conditions: 100 mg/Kg dose
Source text: Nude mice were implanted with 2×10^6 A549 cells in the right hind limb flank.

Protocol for A549 and H1299 cells: Solubilization of the cells by the addition of a detergent results in the liberation of the crystals, which are solubilized. The number of surviving cells is directly proportional to the level of the formazan product created. The color can then be quantified using a simple colorimetric assay. This assay was done using 0-1000 ng/ml concentrations of Erlotinib and the test compounds in A549 and H1299 cells.

## C#Cc1cccc(Nc2ncnc3cc(OC)c(OCCCN4CCOCC4)cc23)c1.Cl [NRC-2694 monohydrochloride, N-(3-ethynylphenyl)-7-methoxy-6-[3-(4-morpholinyl)propoxy]-4-quinazolinamine mono hydrochloride]
[1]
  chromodacryoorhea (animals affected): 10/10
  mild to severe lethargy (animals affected): 10/10
  piloerection (animals affected): 10/10
  ptosis (animals affected): 4/10
  weakness (animals affected): 1/10
[2]
  NOAEL at 30 days: 10 mg/kg/day
[3]
  functional observational battery: did not show any adverse effects at the tested doses
[4]; 250 mg/kg and 500 mg/kg, oral gavage, mice
  toxic signs or mortality: did not produce any toxic signs or mortality
[5]
  respiratory rate, tidal volume, minute volume, and Penh: did not influence any of the observed parameters
In vivo [6]
  MTD at 14 days: 1000 mg/kg
[7]; day 1, female, 10 mg/kg
  Tmax: 2 h
[7]; day 1, female, 40 mg/kg
  Tmax: 4 h
[7]; day 1, male, 10 mg/kg
  Tmax: 2 h
[7]; day 1, male, 20 mg/kg
  Tmax: 3 h
[7]; day 1, male, 40 mg/kg
  Tmax: 2 h
[7]; day 30, female, 20 mg/kg
  Tmax: 4 h
[7]; three dose levels, male and female dogs
  Cmax: dose-dependent change in the Cmax
[8]
  mutagenicity (His revertant colonies): non-mutagenic
[9]; 15, 30 and 60 mg/kg b.wt. oral
  cardiovascular parameters (blood pressure, pulse pressure, heart rate, QT, QTcf): no significant negative effects on cardiovascular parameters
[9]; cardiovascular parameters, oral
  no observed effect level: 60 mg/kg b.wt.

## C#Cc1cccc(Nc2ncnc3cc(OCCOC)c(OCCOC)cc23)c1 [Erlotinib HCl, N-(3-Ethylnylphenyl)-6,7-bis(2-methoxyethoxy)-4-quinazolinamine]
[10]
  MTD: 500 mg/kg
[11]; both sexes, mouse, in vivo
  LD50 at 14 days: 805 mg/kg
[11]; no mortality at end of 7 days
  LD0: 500 mg/kg
[12]
  tumors at the end of 42 days treatment: residual tumors were still present
[13]
  residual tumors in harvested lungs: tumors were still present
[2]
  NOAEL at 30 days: 5 mg/kg/day
VEGFR
  VEGFR levels: no such indication was seen
H1299 and A549 cells
  invasion: dose dependent decrease in invasion
In vivo [14]
  MTD at 72 h: 500 mg/kg
[4]; both, Swiss albino, mouse, in vivo, po
  MTD at 14 days: 500 mg/kg
ERBB4
  Erb B4 levels: no such indication was seen
ERBB2
  Erb B2 levels: no such indication was seen
A549 and H1299 cells
  IC50: 0.836 µg/mL
A549 human lung tumors
  tumor regression: tumors were still present
